According to ChEMBL document CHEMBL1136412, “Imidazo[4,5-c]pyridines as corticotropin releasing factor receptor ligands” (Bioorg Med Chem Lett, 2003):

Assays:
[1] = Partition coefficient (logP); format: physicochemical; conditions: octanol/water
[2] = pKa value of the compound; format: physicochemical
[3] = molecular target: T1, Corticotropin releasing factor receptor (Rattus norvegicus, UniProt P47866+P35353); assay: In vitro binding affinity against Corticotropin releasing factor receptor in rat cortical homogenates
[4] = Maximal plasma concentration at a dose of 1 mg/kg (oral); format: ADME, organism-based, Canis lupus familiaris; parameters: route oral, dose 1 mg/kg; conditions: dog
Canis familiaris [5] = assay: Area under the curve at i.v. dose of 0.2 mg/kg; format: ADME, organism-based, Canis lupus familiaris; parameters: dose 0.2 mg/kg, route intravenous; conditions: dog, in vivo, iv
Canis familiaris [6] = assay: Area under the curve at a dose of 1 mg/kg (oral); format: ADME, organism-based, Canis lupus familiaris; parameters: dose 1 mg/kg; conditions: dog, in vivo
[7] = Oral bioavailability at a dose of 1 mg/kg in dogs; format: ADME, organism-based, Canis lupus familiaris; conditions: dog, in vivo
[8] = Steady state volume of distribution at a dose of 0.2 mg/kg i.v.; format: ADME, organism-based, Canis lupus familiaris; parameters: dose 0.2 mg/kg, route intravenous; conditions: dog, in vivo, iv, read-out: Vss
[9] = (§1) Half life was evaluated in dog; format: ADME, organism-based, Canis lupus familiaris; conditions: in vivo
Canis familiaris [10] = organism: Canis familiaris; assay: as §1; format: ADME, organism-based, Canis lupus familiaris; conditions: in vivo
[11] = Clearance value at a dose of 0.2 mg/kg i.v.; format: ADME, organism-based, Canis lupus familiaris; parameters: dose 0.2 mg/kg, route intravenous; conditions: dog, in vivo, iv, read-out: Cls (converted)
[12] = molecular target: T1, Corticotropin releasing factor receptor; assay: In vitro binding affinity against CRF receptor in rat cortical homogenates

Row | logP [1] | Ki [3] [nM] | SMILES | also measured
1 | 5.56 | – | CCc1nc2c(-c3ccc(Cl)cc3Cl)ccnc2n1C(CC)C1CC1 (stereo not drawn) | pKa [2]: 3.86
2 | – | 14 | CCc1nc2c(-c3ccc(Cl)cc3C)nccc2n1C(CC)C1CC1 (stereo not drawn) | –
3 | 5.35 | – | CCCC(C)n1c(CC)nc2c(-c3ccc(OC(F)F)cc3Cl)ccnc21 (stereo not drawn) | –
4 | – | 2.9 | CCc1nc2c(-c3ccc(C(F)(F)F)cc3Cl)nccc2n1C(CC)C1CC1 (stereo not drawn) | –
5 | – | 9.1 | CCCC(C)n1c(CC)nc2c(-c3ccc(Cl)cc3C)nccc21 (stereo not drawn) | –
6 | – | 1.9 | CCC[C@@H](C)n1c(CC)nc2c(-c3ccc(OC(F)(F)F)cc3Cl)nccc21 | –
7 | 4.1 | – | CCc1nc2c(-c3ccc(Cl)cc3Cl)nccc2n1C(CC)C1CC1 (stereo not drawn) | –
8 | – | 4.4 | CCc1nc2c(-c3ccc(Cl)cc3C(F)(F)F)nccc2n1C(CC)C1CC1 (stereo not drawn) | –
9 | – | 3.5 | CCCC(C)n1c(CC)nc2c(-c3ccc(C(F)(F)F)cc3Cl)nccc21 (stereo not drawn) | –
10 | 4.62 | 2.8 | CCCC(C)n1c(CC)nc2c(-c3ccc(OC(F)(F)F)cc3Cl)nccc21 (stereo not drawn) | pKa [2]: 5.09
11 | 4.33 | – | CCc1nc2c(-c3ccc(Cl)cc3Cl)ncnc2n1C(C)C1CC1 (stereo not drawn) | pKa [2]: < 3
12 | – | 5.4 | CCc1nc2c(-c3ccc(C(F)(F)F)cc3Cl)nccc2n1C(CC)CC | –
13 | – | 9 | CCCC(C)n1c(CC)nc2c(-c3ccc(OC(F)F)cc3C)nccc21 (stereo not drawn) | –
14 | – | 3 | CCCC(C)n1c(CC)nc2c(-c3ccc(Cl)cc3Cl)nccc21 (stereo not drawn) | –
15 | – | 2.3 | CCC[C@H](C)n1c(CC)nc2c(-c3ccc(OC(F)(F)F)cc3Cl)nccc21 | Cmax [4]: 92.4 nM; AUC (Canis familiaris [5]): 0.341 µM·h; AUC (Canis familiaris [6]): 0.569 µM·h; bioavailability [7]: 33%; Vd [8]: 19.1 L/kg; half-life [9]: 15.1 h; T1/2 (Canis familiaris [10]): 9.4 h; clearance [11]: 23.3 mL/min/kg
16 | – | – | CCc1nc2c(-c3ccc(OC(F)(F)F)cc3Cl)nccc2n1C(C)CC (stereo not drawn) | Ki [12]: 7.8 nM
